Results as given in ChEMBL document CHEMBL4507276 (2021).

What was measured:
[1] = molecular target: Casein kinase I isoform epsilon (Homo sapiens) (UniProt P49674); experiment: CSNK1E Invitrogen selectivity data (BI); conditions: Compound concentration 3.0 uM
[2] = molecular target: Acetylcholinesterase (Homo sapiens) (UniProt P22303); experiment: ACHE/H Cerep selectivity data (BI); conditions: Compound concentration 20.0 uM
[3] = molecular target: Cyclin-dependent kinase 7 (Homo sapiens) (UniProt P50613); experiment: CDK7CYCLIN Invitrogen selectivity data (BI); conditions: Compound concentration 3.0 uM
[4] = tested on: Cricetinae; experiment: ML2(MT3) Cerep selectivity data (BI); conditions: Compound concentration 20.0 uM
[5] = molecular target: Estrogen receptor (Homo sapiens) (UniProt P03372); experiment: ER_ALPHA_AGON Cerep selectivity data (BI); conditions: filed as agonist, Compound concentration 20.0 uM
[6] = tested on: Epidermal growth factor receptor (Homo sapiens), P00533 [L858R]; experiment: EGFR L858R Invitrogen selectivity data (BI); conditions: Compound concentration 3.0 uM
[7] = molecular target: T1, Mitogen-activated protein kinase kinase kinase 5 (Homo sapiens) (UniProt Q99683); experiment: MAP3K5 Invitrogen selectivity data (BI); conditions: Compound concentration 3.0 uM
T1 sequence (whole entry): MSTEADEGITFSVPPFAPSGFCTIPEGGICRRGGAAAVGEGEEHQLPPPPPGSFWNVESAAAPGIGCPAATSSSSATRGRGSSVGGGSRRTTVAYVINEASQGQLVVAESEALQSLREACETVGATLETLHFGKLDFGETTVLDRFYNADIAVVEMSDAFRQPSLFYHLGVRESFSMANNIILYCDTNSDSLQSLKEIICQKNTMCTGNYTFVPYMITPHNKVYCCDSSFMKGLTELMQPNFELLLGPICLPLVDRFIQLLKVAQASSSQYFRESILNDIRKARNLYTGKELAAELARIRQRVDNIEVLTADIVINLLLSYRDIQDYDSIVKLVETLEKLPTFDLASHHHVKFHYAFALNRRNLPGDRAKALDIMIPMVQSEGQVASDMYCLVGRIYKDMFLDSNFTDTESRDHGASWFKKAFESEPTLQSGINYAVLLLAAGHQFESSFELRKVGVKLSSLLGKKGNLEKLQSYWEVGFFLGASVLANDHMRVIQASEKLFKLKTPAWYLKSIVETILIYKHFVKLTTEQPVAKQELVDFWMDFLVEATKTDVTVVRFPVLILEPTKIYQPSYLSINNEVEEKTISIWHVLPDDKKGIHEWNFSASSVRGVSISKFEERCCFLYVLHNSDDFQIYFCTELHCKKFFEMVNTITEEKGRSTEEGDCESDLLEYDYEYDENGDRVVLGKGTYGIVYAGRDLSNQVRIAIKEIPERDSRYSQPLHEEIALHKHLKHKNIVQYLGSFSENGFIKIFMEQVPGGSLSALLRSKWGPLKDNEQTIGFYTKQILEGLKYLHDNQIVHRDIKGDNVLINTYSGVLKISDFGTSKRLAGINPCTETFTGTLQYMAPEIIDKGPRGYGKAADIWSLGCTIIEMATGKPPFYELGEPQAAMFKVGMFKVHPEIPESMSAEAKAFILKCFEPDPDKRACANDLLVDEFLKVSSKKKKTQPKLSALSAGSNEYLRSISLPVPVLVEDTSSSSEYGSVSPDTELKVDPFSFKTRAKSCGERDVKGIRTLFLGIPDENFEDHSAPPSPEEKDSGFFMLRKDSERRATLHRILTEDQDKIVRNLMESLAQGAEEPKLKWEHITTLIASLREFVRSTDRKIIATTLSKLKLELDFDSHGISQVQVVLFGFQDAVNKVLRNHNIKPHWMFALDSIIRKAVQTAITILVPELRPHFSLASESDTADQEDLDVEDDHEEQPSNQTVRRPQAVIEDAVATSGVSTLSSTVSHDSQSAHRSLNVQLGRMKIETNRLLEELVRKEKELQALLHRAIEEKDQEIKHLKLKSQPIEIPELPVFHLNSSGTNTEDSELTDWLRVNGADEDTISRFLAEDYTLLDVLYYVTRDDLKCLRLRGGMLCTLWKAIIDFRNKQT

[8] = molecular target: Calcium/calmodulin-dependent protein kinase type 1 (Homo sapiens) (UniProt Q14012); experiment: CAMK1_A Invitrogen selectivity data (BI); conditions: Compound concentration 3.0 uM
[9] = molecular target: T2, Tyrosine-protein kinase JAK3 (Homo sapiens) (UniProt P52333); experiment: JAK3 Invitrogen selectivity data (BI); conditions: Compound concentration 3.0 uM
T2 sequence (whole entry): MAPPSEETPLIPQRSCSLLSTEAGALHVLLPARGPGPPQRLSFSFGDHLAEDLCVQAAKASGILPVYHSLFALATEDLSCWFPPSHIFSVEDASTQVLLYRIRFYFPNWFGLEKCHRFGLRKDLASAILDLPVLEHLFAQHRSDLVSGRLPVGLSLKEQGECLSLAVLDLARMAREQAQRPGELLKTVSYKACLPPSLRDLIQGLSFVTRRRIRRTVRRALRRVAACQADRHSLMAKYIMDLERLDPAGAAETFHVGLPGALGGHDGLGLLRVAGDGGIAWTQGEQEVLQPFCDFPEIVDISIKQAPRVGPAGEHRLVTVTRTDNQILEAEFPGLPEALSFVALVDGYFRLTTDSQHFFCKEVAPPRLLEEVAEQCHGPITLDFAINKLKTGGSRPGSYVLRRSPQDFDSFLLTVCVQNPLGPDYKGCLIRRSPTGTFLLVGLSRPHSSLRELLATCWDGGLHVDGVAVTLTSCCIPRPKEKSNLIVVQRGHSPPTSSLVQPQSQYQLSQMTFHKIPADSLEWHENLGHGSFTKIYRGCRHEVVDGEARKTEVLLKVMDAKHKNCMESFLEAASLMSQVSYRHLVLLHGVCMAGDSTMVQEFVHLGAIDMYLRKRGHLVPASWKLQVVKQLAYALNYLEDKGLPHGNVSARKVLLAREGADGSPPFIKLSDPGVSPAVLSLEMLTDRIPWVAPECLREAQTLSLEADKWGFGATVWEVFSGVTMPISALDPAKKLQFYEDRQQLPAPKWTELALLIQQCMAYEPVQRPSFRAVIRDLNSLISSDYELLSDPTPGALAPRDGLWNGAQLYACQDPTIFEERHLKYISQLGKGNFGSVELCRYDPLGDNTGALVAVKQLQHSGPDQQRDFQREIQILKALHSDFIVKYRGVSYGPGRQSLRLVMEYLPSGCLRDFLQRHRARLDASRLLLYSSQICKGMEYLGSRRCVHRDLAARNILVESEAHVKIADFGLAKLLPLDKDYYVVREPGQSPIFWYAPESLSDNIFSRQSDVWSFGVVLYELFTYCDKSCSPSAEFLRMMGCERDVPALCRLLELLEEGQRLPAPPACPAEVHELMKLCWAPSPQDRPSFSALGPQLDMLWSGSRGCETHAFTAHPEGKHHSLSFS

[10] = molecular target: Delta-type opioid receptor (Homo sapiens) (UniProt P41143); experiment: DELTA/HU Eurofins-Panlabs selectivity data (BI); conditions: Compound concentration 10.0 uM

Measured: residual activity

Cyclin-dependent kinase 7 (Homo sapiens), sequence (P50613 whole entry): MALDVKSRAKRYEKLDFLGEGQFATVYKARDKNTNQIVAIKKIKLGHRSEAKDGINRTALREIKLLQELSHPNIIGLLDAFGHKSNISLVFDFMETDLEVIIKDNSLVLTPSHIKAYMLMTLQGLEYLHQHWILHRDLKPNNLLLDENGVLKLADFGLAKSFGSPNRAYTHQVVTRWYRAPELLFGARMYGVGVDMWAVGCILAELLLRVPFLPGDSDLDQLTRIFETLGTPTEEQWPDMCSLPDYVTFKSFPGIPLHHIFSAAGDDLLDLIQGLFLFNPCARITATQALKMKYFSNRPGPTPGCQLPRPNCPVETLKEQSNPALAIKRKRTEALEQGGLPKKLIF
Casein kinase I isoform epsilon (Homo sapiens), sequence (P49674 whole entry, looked up, canonical isoform): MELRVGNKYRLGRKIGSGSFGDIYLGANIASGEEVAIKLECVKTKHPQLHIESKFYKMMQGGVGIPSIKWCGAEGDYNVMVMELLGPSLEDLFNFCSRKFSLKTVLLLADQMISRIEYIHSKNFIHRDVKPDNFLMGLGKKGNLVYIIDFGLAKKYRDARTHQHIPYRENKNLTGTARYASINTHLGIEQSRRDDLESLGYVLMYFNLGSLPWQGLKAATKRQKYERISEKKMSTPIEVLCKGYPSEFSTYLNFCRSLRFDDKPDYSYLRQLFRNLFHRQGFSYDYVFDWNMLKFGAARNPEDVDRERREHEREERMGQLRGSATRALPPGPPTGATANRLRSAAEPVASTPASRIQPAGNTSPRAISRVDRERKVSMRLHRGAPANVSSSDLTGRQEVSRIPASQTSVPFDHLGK
Delta-type opioid receptor (Homo sapiens), sequence (P41143 whole entry): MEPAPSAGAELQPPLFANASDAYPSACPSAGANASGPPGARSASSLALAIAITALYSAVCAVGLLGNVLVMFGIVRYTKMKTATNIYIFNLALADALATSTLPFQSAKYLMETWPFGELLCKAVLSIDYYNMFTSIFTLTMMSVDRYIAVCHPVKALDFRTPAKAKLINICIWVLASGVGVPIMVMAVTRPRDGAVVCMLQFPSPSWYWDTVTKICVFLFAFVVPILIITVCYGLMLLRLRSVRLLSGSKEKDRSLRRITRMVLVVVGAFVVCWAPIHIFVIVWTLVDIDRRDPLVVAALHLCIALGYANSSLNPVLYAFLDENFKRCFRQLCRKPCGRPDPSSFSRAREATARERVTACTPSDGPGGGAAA
Estrogen receptor (Homo sapiens), sequence (P03372 whole entry): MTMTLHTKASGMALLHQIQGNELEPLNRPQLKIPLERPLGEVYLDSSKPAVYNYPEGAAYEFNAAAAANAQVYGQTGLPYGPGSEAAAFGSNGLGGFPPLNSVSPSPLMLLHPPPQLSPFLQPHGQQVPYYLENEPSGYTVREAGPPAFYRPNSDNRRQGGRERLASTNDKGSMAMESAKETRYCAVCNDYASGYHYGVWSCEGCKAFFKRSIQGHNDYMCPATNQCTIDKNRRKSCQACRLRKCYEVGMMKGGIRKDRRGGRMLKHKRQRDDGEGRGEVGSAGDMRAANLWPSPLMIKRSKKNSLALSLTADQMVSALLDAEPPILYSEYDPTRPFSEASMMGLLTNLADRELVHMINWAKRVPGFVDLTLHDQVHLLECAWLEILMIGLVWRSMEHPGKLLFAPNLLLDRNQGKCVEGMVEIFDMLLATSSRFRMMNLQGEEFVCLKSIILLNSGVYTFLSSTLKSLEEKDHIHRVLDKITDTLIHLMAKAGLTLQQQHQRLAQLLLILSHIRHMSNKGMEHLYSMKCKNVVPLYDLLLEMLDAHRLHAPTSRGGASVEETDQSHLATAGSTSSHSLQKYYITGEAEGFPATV
Calcium/calmodulin-dependent protein kinase type 1 (Homo sapiens), sequence (Q14012 whole entry, looked up): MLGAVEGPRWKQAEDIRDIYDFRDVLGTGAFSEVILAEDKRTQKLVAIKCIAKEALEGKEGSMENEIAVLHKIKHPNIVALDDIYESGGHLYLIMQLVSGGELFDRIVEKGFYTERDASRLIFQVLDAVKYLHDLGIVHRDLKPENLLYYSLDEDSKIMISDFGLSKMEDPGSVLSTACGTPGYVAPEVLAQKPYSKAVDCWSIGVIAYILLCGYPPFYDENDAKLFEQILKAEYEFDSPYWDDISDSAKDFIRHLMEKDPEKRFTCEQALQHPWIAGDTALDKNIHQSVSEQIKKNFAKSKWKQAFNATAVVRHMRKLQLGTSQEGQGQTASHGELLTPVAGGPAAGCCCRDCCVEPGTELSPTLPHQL
Acetylcholinesterase (Homo sapiens), sequence (P22303 whole entry): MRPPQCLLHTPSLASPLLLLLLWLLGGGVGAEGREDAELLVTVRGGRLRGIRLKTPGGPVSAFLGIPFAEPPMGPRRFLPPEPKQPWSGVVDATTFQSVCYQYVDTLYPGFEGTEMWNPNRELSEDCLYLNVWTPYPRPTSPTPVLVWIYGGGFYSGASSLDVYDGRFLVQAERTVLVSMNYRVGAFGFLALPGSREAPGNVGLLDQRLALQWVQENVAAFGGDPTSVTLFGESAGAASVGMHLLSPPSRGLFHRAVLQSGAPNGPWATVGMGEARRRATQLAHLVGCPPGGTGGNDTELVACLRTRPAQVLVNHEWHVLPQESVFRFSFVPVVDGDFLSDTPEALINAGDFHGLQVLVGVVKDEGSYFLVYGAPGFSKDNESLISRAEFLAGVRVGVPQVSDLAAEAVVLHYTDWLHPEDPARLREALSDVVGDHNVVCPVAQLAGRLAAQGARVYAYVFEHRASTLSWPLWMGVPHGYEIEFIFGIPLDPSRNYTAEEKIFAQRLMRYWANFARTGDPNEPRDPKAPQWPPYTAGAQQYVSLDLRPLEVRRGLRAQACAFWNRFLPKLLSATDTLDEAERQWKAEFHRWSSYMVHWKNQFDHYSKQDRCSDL

CN(C)C(=O)Cn1cc(-c2nc([C@@](C)(c3ccc(-c4cnc(N)nc4)cc3)C3CC3)no2)cn1 [BI 665915]
inactive: [1] 95% | [2] 98% | [3] 100% | [4] 70% | [5] 96% | [6] 96% | [7] 99% | [8] 102% | [9] 96.5% | [10] 96%
